COCCOCCCn1c(C=O)c(Br)c2c3c(c(-c4ccccc4Cl)cc21)C(=O)NC3=O [Example 69, 8-Bromo-4-(2-chlorophenyl)-6-[3-(2-methoxyethoxy)propyl]-1,3-dioxo-1,2,3,6-tetrahydro-2,6-diaza-as-indacene-7-carbaldehyde] showed a melting point of 168 to 169 °C.
Compound CCCN(CCC)CCCn1cc(Br)c2c3c(c(-c4ccccc4Cl)cc21)C(=O)NC3=O [Example 141, 8-Bromo-4-(2-chlorophenyl)-6-(3-dipropylaminopropyl)-6H-2,6-diaza-as-indacene-1,3-dione] has a melting point of 173 to 175 °C.
COCCOCCCn1c(CO)c(Br)c2c3c(c(-c4ccccc4Cl)cc21)C(=O)NC3=O [Example 70] gave a melting point of 149 to 150 °C.
In the case of CN1CCN(CCCn2cc(Br)c3c4c(c(-c5ccccc5Cl)cc32)C(=O)NC4=O)CC1 [Example 138, 8-Bromo-4-(2-chlorophenyl)-6-[3-(4-methylpiperazin-1-yl)-propyl]-6H-2,6-diaza-as-indacene-1,3-dione], the melting point is reported as 150 to 152 °C.
For COCCCn1c(C=O)c(Br)c2c3c(c(-c4ccccc4Cl)cc21)C(=O)NC3=O [Example 61, 8-Bromo-4-(2-chlorophenyl)-6-(3-methoxypropyl)-1,3-dioxo-1,2,3,6-tetrahydro-2,6-diaza-as-indacene-7-carbaldehyde], the melting point was 206 to 207 °C.
For CCOC(=O)c1cc2c3c(c(-c4ccccc4Cl)cc2n1CCCOC)C(=O)NC3=O [Example 46, 4-(2-Chlorophenyl)-6-(3-methoxypropyl)-1,3-dioxo-1,2,3,6-tetrahydro-2,6-diaza-as-indacene-7-carboxylic acid ethyl ester], the melting point was 235 to 237 °C.
In the case of COc1cccc(Cl)c1-c1cc2c(ccn2C)c2c1C(=O)NC2=O [Example 33, 4-(2-Chloro-6-methoxyphenyl)-6-methyl-6H-2,6-diaza-as-indacene-1,3-dione], the melting point is reported as 268 to 272 °C.
Compound Cn1cc(C#N)c2c3c(c(-c4ccccc4Cl)cc21)C(=O)NC3=O [Example 151, 4-(2-Chlorophenyl)-6-methyl-1,3-dioxo-1,2,3,6-tetrahydro-2,6-diaza-as-indacene-8-carbonitrile] has a melting point of 160 to 163 °C.
C#Cc1cn(C)c2cc(-c3ccccc3Cl)c3c(c12)C(=O)NC3=O [Example 149, 4-(2-Chlorophenyl)-8-ethynyl-6-methyl-6H-2,6-diaza-as-indacene-1,3-dione] gave a melting point of 125 to 129 °C.
With COCCCn1c(C(N)=O)cc2c3c(c(-c4ccccc4Cl)cc21)C(=O)NC3=O [Example 51, 4-(2-Chlorophenyl)-6-(3-methoxypropyl)-1,3-dioxo-1,2,3,6-tetrahydro-2,6-diaza-as-indacene-7-carboxylic acid amide] the melting point was 260 to 261 °C.
Work on COCCCn1c(C(=O)O)cc2c3c(c(-c4ccccc4Cl)cc21)C(=O)NC3=O [Example 47, 4-(2-Chlorophenyl)-6-(3-methoxypropyl)-1,3-dioxo-1,2,3,6-tetrahydro-2,6-diaza-as-indacene-7-carboxylic acid] yielded a melting point of 272 to 274 °C.
Compound CCOCCOCCn1ccc2c3c(c(-c4ccccc4Cl)cc21)C(=O)NC3=O [Example 35, 4-(2-Chlorophenyl)-6-[2-(2-ethoxyethoxy)ethyl]-6H-2,6-diaza-as-indacene-1,3-dione] has a melting point of 173 °C.
In the case of O=C1NC(=O)c2c1c(-c1ccccc1Cl)cc1c2ccn1CCN1CCCC1 [Example 142, 4-(2-Chlorophenyl)-6-(2-pyrrolidin-1-ylethyl)-6H-2,6-diaza-as-indacene-1,3-dione], the melting point is reported as 208 to 209 °C.
COc1ccccc1-c1cc2c(c(Cl)cn2C)c2c1C(=O)NC2=O [Example 30, 8-Chloro-4-(2-methoxyphenyl)-6-methyl-6H-2,6-diaza-as-indacene-1,3-dione] gave a melting point of 267 to 271 °C.
For CSc1ccccc1-c1cc2c(c(Br)cn2C)c2c1C(=O)NC2=O [Example 31, 8-Bromo-6-methyl-4-(2-methylsulfanylphenyl)-6H-2,6-diaza-as-indacene-1,3-dione], the melting point was 240 to 243 °C.
Compound COc1cccc(Cl)c1-c1cc2c(c(Br)cn2C)c2c1C(=O)NC2=O [Example 34, 8-Bromo-4-(2-chloro-6-methoxyphenyl)-6-methyl-6H-2,6-diaza-as-indacene-1,3-dione] has a melting point of 238 to 242 °C.
CN(C)CCCn1cc(Br)c2c3c(c(-c4ccccc4Cl)cc21)C(=O)NC3=O [Example 140, 8-Bromo-4-(2-chlorophenyl)-6-(3-dimethylaminopropyl)-6H-2,6-diaza-as-indacene-1,3-dione] showed a melting point of 160 to 162 °C.
Compound CCOCCOCCn1c(C=O)c(Br)c2c3c(c(-c4ccccc4Cl)cc21)C(=O)NC3=O [Example 56, 8-Bromo-4-(2-chlorophenyl)-6-[2-(2-ethoxyethoxy)ethyl]-1,3-dioxo-1,2,3,6-tetrahydro-2,6-diaza-as-indacene-7-carbaldehyde] has a melting point of 203 to 205 °C.
COCCCn1ccc2c3c(c(-c4ccccc4Cl)cc21)C(=O)NC3=O [Example 43, 4-(2-Chlorophenyl)-6-(3-methoxypropyl)-6H-2,6-diaza-as-indacene-1,3-dione] gave a melting point of 171 to 172 °C.
With CCOCCOCCn1c(C=O)cc2c3c(c(-c4ccccc4Cl)cc21)C(=O)NC3=O [Example 55, 4-(2-Chlorophenyl)-6-[2-(2-ethoxyethoxy)ethyl]-1,3-dioxo-1,2,3,6-tetrahydro-2,6-diaza-as-indacene-7-carbaldehyde] the melting point was 162 to 165 °C.
CCc1cn(C)c2cc(-c3ccccc3Cl)c3c(c12)C(=O)NC3=O [Example 148, 4-(2-Chlorophenyl)-8-ethyl-6-methyl-6H-2,6-diaza-as-indacene-1,3-dione] showed a melting point of 230 to 233 °C.
With O=C1NC(=O)c2c1c(-c1ccccc1Cl)cc1c2c(Br)cn1CCCN1CCOCC1 [Example 139, 8-Bromo-4-(2-chlorophenyl)-6-(3-morpholin-4-ylpropyl)-6H-2,6-diaza-as-indacene-1,3-dione] the melting point was 117 to 120 °C.
O=C1NC(=O)c2c1c(-c1ccccc1Cl)cc1c2ccn1CCCO [Example 42, 4-(2-Chlorophenyl)-6-(3-hydroxypropyl)-6H-2,6-diaza-as-indacene-1,3-dione] showed a melting point of 225 to 227 °C.
In the case of COc1ccccc1-c1cc2c(c(C#CCO)cn2C)c2c1C(=O)NC2=O [Example 150, 8-(3-Hydroxyprop-1-ynyl)-4-(2-methoxyphenyl)-6-methyl-6H-2,6-diaza-as-indacene-1,3-dione], the melting point is reported as 154 to 157 °C.
Compound O=C1NC(=O)c2c1c(-c1ccccc1Cl)cc1c2c(Br)cn1CCCN1CCCC1 [Example 137, 8-Bromo-4-(2-chlorophenyl)-6-(3-pyrrolidin-1-ylpropyl)-6H-2,6-diaza-as-indacene-1,3-dione] has a melting point of 158 to 161 °C.
CCOCCOCCn1cc(Br)c2c3c(c(-c4ccccc4Cl)cc21)C(=O)NC3=O [Example 36, 8-Bromo-4-(2-chlorophenyl)-6-[2-(2-ethoxyethoxy)ethyl]-6H-2,6-diaza-as-indacene-1,3-dione] showed a melting point of 108 to 110 °C.
CCOC(=O)c1cc2c3c(c(-c4ccccc4Cl)cc2n1CCCO)C(=O)NC3=O [Example 48 (ii), 4-(2-Chlorophenyl)-6-(3-hydroxypropyl)-1,3-dioxo-1,2,3,6-tetrahydro-2,6-diaza-as-indacene-7-carboxylic acid ethyl ester] showed a melting point of 249 to 251 °C.
With Cn1ccc2c3c(c(-c4ccccc4[S+](C)[O-])cc21)C(=O)NC3=O (stereo not drawn) [Example 134 (sulfoxide), 4-(2-Methanesulfinylphenyl)-6-methyl-6H-2,6-diaza-as-indacene-1,3-dione] the melting point was 311 to 315 °C.
Cn1cc(C(O)CO)c2c3c(c(-c4ccccc4Cl)cc21)C(=O)NC3=O (stereo not drawn) [Example 146, 4-(2-Chlorophenyl)-8-(1,2-dihydroxyethyl)-6-methyl-6H-2,6-diaza-as-indacene-1,3-dione] showed a melting point of 179 to 183 °C.
O=C1NC(=O)c2c1c(-c1ccccc1Cl)cc1c2c(Cl)c(CO)n1CCCO [Example 66, 8-Chloro-4-(2-chlorophenyl)-7-hydroxymethyl-6-(3-hydroxypropyl)-6H-2,6-diaza-as-indacene-1,3-dione] showed a melting point of 218 to 219 °C.
Work on COc1ccccc1-c1cc2c(ccn2C)c2c1C(=O)NC2=O [Example 27, 4-(2-Methoxyphenyl)-6-methyl-6H-2,6-diaza-as-indacene-1,3-dione] yielded a melting point of 243 to 245 °C.
In the case of COCCCn1c(C=O)c(Cl)c2c3c(c(-c4ccccc4Cl)cc21)C(=O)NC3=O [Example 64, 8-Chloro-4-(2-chlorophenyl)-6-(3-methoxypropyl)-1,3-dioxo-1,2,3,6-tetrahydro-2;6-diaza-as-indacene-7-carbaldehyde], the melting point is reported as 198 to 199 °C.
Cn1cc(CCO)c2c3c(c(-c4ccccc4Cl)cc21)C(=O)NC3=O [Example 147, 4-(2-Chlorophenyl)-8-(2-hydroxyethyl)-6-methyl-6H-2,6-diaza-as-indacene-1,3-dione] gave a melting point of 225 to 229 °C.
Compound CN(C)Cc1cn(C)c2cc(-c3ccccc3Cl)c3c(c12)C(=O)NC3=O [Example 167, 4-(2-Chlorophenyl)-8-dimethylaminomethyl-6-methyl-6H-2,6-diaza-as-indacene-1,3-dione] has a melting point of 155 to 159 °C.
Work on COCCCn1c(CO)c(Cl)c2c3c(c(-c4ccccc4Cl)cc21)C(=O)NC3=O [Example 67, 8-Chloro-4-(2-chlorophenyl)-7-hydroxymethyl-6-(3-methoxypropyl)-6H-2,6-diaza-as-indacene-1,3-dione] yielded a melting point of 214 to 215 °C.
In the case of Cl.NCCCn1cc(Br)c2c3c(c(-c4ccccc4Cl)cc21)C(=O)NC3=O, the melting point is reported as 310 to 313 °C.
Compound COc1ccccc1-c1cc2c(c(Br)cn2C)c2c1C(=O)NC2=O [Example 28, 8-Bromo-4-(2-methoxyphenyl)-6-methyl-6H-2,6-diaza-as-indacene-1,3-dione] has a melting point of 216 to 220 °C.
O=C1NC(=O)c2c1c(-c1ccccc1Cl)cc1c2cc(C(=O)O)n1CCCBr [Example 49, 6-(3-Bromopropyl)-4-(2-chlorophenyl)-1,3-dioxo-1,2,3,6-tetrahydro-2,6-diaza-as-indacene-7-carboxylic acid] gave a melting point of 294 to 295 °C.
In the case of COCCCn1c(C=O)cc2c3c(c(-c4ccccc4Cl)cc21)C(=O)NC3=O [Example 58, 4-(2-Chlorophenyl)-6-(3-methoxypropyl)-1,3-dioxo-1,2,3,6-tetrahydro-2,6-diaza-as-indacene-7-carbaldehyde], the melting point is reported as 155 to 156 °C.
